In PubChem BioAssay (NCI) one finds TGI data, which are given here for 25 compounds.

Among the test systems are SW-620 colon; K-562 leukemia; U251 CNS; HCT-15 colon; HL-60(TB) leukemia; HT29 colon; LOX IMVI melanoma; NCI/ADR-RES ovarian; MCF7 breast.
What all share (assay): growth of human tumour cells (NCI), 48 h

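Compound exposure: 48 hours, 5 concentrations, 96-well plates. The concentration for full growth arrest is given as TGI.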 Where a SMILES comes first, the peptide text is derived from it. The star is where a group is joined. Boc = CC(C)(C)OC(=O)*; OSu = O=C1CCC(=O)N1O* Where only a bound is given, the exact number is not on record here.

Regarding `Cc1c(Cl)c2ccccc2n1S(=O)(=O)c1ccccc1`, the TGI was above 100 µM with SW-620 colon; above 100 µM with K-562 leukemia; above 100 µM in the assay with U251 CNS; above 100 µM in the assay with HCT-15 colon; 78.8 µM with HL-60(TB) leukemia; above 100 µM in the assay on HT29 colon.
With `CC(C)(C)N=NNc1cn(C2OC(CO)C(O)C2O)c(=O)[nH]c1=O` (stereo not given), the TGI in the assay on SW-620 colon was 34.7 µM; with LOX IMVI melanoma, above 100 µM; in the assay with K-562 leukemia it was above 100 µM; with HCT-15 colon, above 100 µM; with HL-60(TB) leukemia it was above 100 µM; in the assay with HT29 colon it was above 100 µM.
With `CN1CCCC2(CCCc3ccccc32)C1` (stereo not given), the TGI in the assay on SW-620 colon, in the assay with LOX IMVI melanoma, in the assay with K-562 leukemia, with U251 CNS, in the assay on HCT-15 colon and in the assay with HL-60(TB) leukemia was above 100 µM throughout. Also, the TGI in the assay with HT29 colon was above 100 µM.
With `CCc1cc(Cc2cc(Cl)c(NC(=O)C(=O)C3NC(=O)NC3=O)c(CC)c2)cc(Cl)c1NC(=O)C(=O)C1NC(=O)NC1=O` (stereo not given), the TGI in the assay with SW-620 colon is 24.1 µM; with LOX IMVI melanoma it was above 100 µM; in the assay on K-562 leukemia, above 100 µM; in the assay with U251 CNS, 40.1 µM; with HCT-15 colon, 35.6 µM; with HL-60(TB) leukemia, above 100 µM. The compound also yielded a TGI in the assay with HT29 colon of 54 µM.
Take `Cc1[nH]c2c(c1C)S(=O)(=O)c1cc3ccccc3nc1N2`: the TGI in the assay with SW-620 colon is above 100 µM; in the assay with LOX IMVI melanoma, 36.4 µM; in the assay on NCI/ADR-RES ovarian, above 100 µM; in the assay on K-562 leukemia, above 100 µM; with U251 CNS, 23.8 µM; in the assay with MCF7 breast it was above 100 µM. Besides, the figures for the TGI in the assay with HCT-15 colon and in the assay with HT29 colon were above 100 µM and 28.2 µM, respectively.
As to `CC(NC(=O)C(NC(=O)OC(C)(C)C)C(C)C)C(=O)NCC(=O)ON1C(=O)CCC1=O` (stereo not drawn) (Boc-Val-Ala-Gly-OSu; configuration not given here), the TGI with SW-620 colon, in the assay on NCI/ADR-RES ovarian, with K-562 leukemia, with U251 CNS, with MCF7 breast and with HCT-15 colon was above 100 µM each time. For the same compound, in the assay on HT29 colon, the TGI is above 100 µM.
Take `Cc1ccc(S(=O)(=O)N/N=C(\c2nc3ccc(Cl)cc3[nH]c2=O)C(O)c2cccc([N+](=O)[O-])c2)cc1` (stereo not given): the TGI in the assay with SW-620 colon, with LOX IMVI melanoma, in the assay on K-562 leukemia, in the assay with U251 CNS, in the assay on HCT-15 colon and in the assay with HL-60(TB) leukemia was above 100 µM in each case. In the assay on HT29 colon, the TGI is above 100 µM.
On to `Clc1ccc(SC(/C=C/NNC2=NC(c3ccccc3)C(c3ccccc3)=NN2)c2ccccc2)cc1` (stereo not given), for which the TGI in the assay on SW-620 colon is above 100 µM; in the assay with LOX IMVI melanoma it was 65.7 µM; in the assay with K-562 leukemia, 53.1 µM; in the assay with U251 CNS it was above 100 µM; in the assay on HCT-15 colon, above 100 µM; with HL-60(TB) leukemia it was 41.9 µM. This compound had a TGI in the assay on HT29 colon of 39.3 µM.
Take `COc1ccc(-c2cc(=O)c3cc4c(cc3[nH]2)OCO4)cc1OC`: the TGI in the assay with SW-620 colon, in the assay on LOX IMVI melanoma, with K-562 leukemia, with U251 CNS, in the assay with HCT-15 colon and in the assay with HL-60(TB) leukemia was above 100 µM each time. Also, the TGI in the assay on HT29 colon is above 100 µM.
Regarding `O=c1[nH]c(=O)n(C2OC(COP(=O)(O)OP(=O)(O)OC3OC(CO)C(O)C(O)C3O)C(O)C2O)cc1F` (stereo not given), the TGI with SW-620 colon was above 100 µM; in the assay on LOX IMVI melanoma, 4.13 µM; in the assay with K-562 leukemia, above 100 µM; in the assay with U251 CNS, above 100 µM; in the assay with HCT-15 colon it was 11.5 µM; with HL-60(TB) leukemia it was above 100 µM. This compound showed a TGI with HT29 colon above 100 µM.
Turning to `O=S(=O)(CCBr)CCBr`, the TGI in the assay on SW-620 colon is 5.74 µM; with LOX IMVI melanoma, 21.8 µM; with NCI/ADR-RES ovarian it was 5.02 µM; with K-562 leukemia, above 48.8 µM; in the assay on U251 CNS it was 29.2 µM; in the assay on MCF7 breast it was 18.3 µM. The TGI with HCT-15 colon was 7.88 µM; in the assay on HL-60(TB) leukemia, 5.93 µM; with HT29 colon it was 20.3 µM.
Turning to `O=C(c1ccc(Cl)cc1)c1ccc(OCCCOc2ccc(C(=O)c3ccc(Cl)cc3)cc2)cc1`, the TGI with SW-620 colon, in the assay on LOX IMVI melanoma, with K-562 leukemia, with U251 CNS, in the assay with HCT-15 colon and in the assay with HL-60(TB) leukemia was above 100 µM in each case. Also, in the assay with HT29 colon, the TGI was above 100 µM.
On to `O=C1Nc2ccccc2C12CCNC2Cc1ccccc1` (stereo not given), for which the TGI in the assay on SW-620 colon, in the assay with LOX IMVI melanoma, in the assay with K-562 leukemia, in the assay with U251 CNS, with HCT-15 colon and with HL-60(TB) leukemia was above 100 µM each time. For the same compound, the TGI in the assay with HT29 colon is above 100 µM.
For the compound `O=C(/C=C/c1ccc(O)cc1)c1ccc2c(c1)OCO2`, the TGI in the assay on SW-620 colon came out at 42.9 µM; in the assay on LOX IMVI melanoma it was 47 µM; in the assay on NCI/ADR-RES ovarian it was 67.9 µM; in the assay with K-562 leukemia it was 81.5 µM; in the assay with U251 CNS it was 36.2 µM; in the assay with HCT-15 colon it was 83.8 µM. The TGI in the assay with HL-60(TB) leukemia amounted to 41.3 µM; with HT29 colon, 33.7 µM.
Consider `CCCSc1ccc2[nH]c(N3C(=O)/C(=C/c4ccco4)N=C3c3ccccc3)cc2c1`, for which the TGI with SW-620 colon, with LOX IMVI melanoma, with NCI/ADR-RES ovarian, in the assay on K-562 leukemia, in the assay with MCF7 breast and in the assay on HCT-15 colon was above 50 µM in each case. Further, the TGI in the assay on HL-60(TB) leukemia and in the assay on HT29 colon was above 50 µM each time.
Regarding `Cc1nc(Nc2ccc(Cl)cc2)sc1C(=O)NNc1ccc([N+](=O)[O-])cc1[N+](=O)[O-]`, the TGI turned out to be 43.5 µM with SW-620 colon; 35.7 µM in the assay with LOX IMVI melanoma; 46.1 µM in the assay on K-562 leukemia; 29.5 µM in the assay on U251 CNS; 43.5 µM in the assay on HL-60(TB) leukemia.
Turning to `COC(=O)/C=C1/CCC(C(=O)OC)N1` (stereo not given), the TGI in the assay on SW-620 colon, in the assay on LOX IMVI melanoma, with K-562 leukemia, with U251 CNS, in the assay on HCT-15 colon and in the assay on HL-60(TB) leukemia was above 100 µM throughout.
In the case of `O=C(/N=C/c1c(O)c2ccccc2oc1=O)Nc1ccccc1`, the TGI in the assay on SW-620 colon, in the assay with LOX IMVI melanoma, in the assay on K-562 leukemia, in the assay with U251 CNS, in the assay on HCT-15 colon and in the assay with HL-60(TB) leukemia was above 100 µM in each case. In addition, the TGI in the assay with HT29 colon was above 100 µM.
With `COc1cc2c(cc1OC)C(C(CO)CO)N(CC(O)CCl)CC2` (stereo not given), the TGI with SW-620 colon, in the assay on LOX IMVI melanoma, in the assay with K-562 leukemia, in the assay on U251 CNS, in the assay on HCT-15 colon and in the assay on HL-60(TB) leukemia was above 100 µM in each case. The compound also returned a TGI with HT29 colon above 100 µM.
As to `CC(=O)[C@@]1(C)CC2(CCN(C)CC2)OC1C` (stereo not given in full), the TGI with SW-620 colon, with LOX IMVI melanoma, in the assay with NCI/ADR-RES ovarian, in the assay on K-562 leukemia, in the assay on U251 CNS and in the assay with HCT-15 colon was above 100 µM each time. The compound also had a TGI in the assay on HT29 colon above 100 µM.
As to `COc1ccc2c(c1)N1CCc3cc(OC)c(OC)cc3C1C2` (stereo not given), the TGI in the assay with SW-620 colon, with LOX IMVI melanoma, in the assay with K-562 leukemia, in the assay with U251 CNS, in the assay on HL-60(TB) leukemia and in the assay on HT29 colon was above 100 µM in each case.
Take `Cc1cccc2c(=O)c([Se]c3coc4c(C)cccc4c3=O)coc12`: the TGI with SW-620 colon is 39.1 µM; in the assay on LOX IMVI melanoma, 35.5 µM; in the assay on K-562 leukemia, above 100 µM; with U251 CNS, 23.8 µM; in the assay with HCT-15 colon, 39.2 µM; with HL-60(TB) leukemia, above 100 µM. Moreover, the TGI in the assay with HT29 colon was 61.7 µM.
For `C[C@]12CCC(=O)C=C1CC[C@@H]1[C@@H]2[C@@H](O)C[C@@]2(C)[C@H]1CC[C@]2(O)C(=O)COC(=O)COCC(=O)O`, the TGI in the assay on SW-620 colon, in the assay with LOX IMVI melanoma, in the assay with K-562 leukemia, in the assay with U251 CNS, in the assay on HCT-15 colon and with HL-60(TB) leukemia was above 100 µM throughout. In the assay on HT29 colon, this compound had a TGI above 100 µM.
On to `COC(=O)C(Cc1c[nH]c2ccccc12)NC(=O)C(Cc1c[nH]c2ccccc12)NC(=O)C(Cc1c[nH]c2ccccc12)NC(=O)C(Cc1c[nH]c2ccccc12)NC(=O)C(Cc1c[nH]c2ccccc12)NC(=O)C(Cc1c[nH]c2ccccc12)NC(=O)OC(C)(C)C` (stereo not given) (Boc-WWWWWW-OMe; configuration not given here), for which the TGI in the assay with SW-620 colon, in the assay with LOX IMVI melanoma, with K-562 leukemia, with U251 CNS, in the assay on MCF7 breast and with HCT-15 colon was above 100 µM in each case. The TGI in the assay on HL-60(TB) leukemia and in the assay with HT29 colon was above 100 µM each time.
As to `NC(CCCC(N)P(=O)(O)c1ccccc1)P(=O)(O)c1ccccc1` (stereo not given), the TGI in the assay with SW-620 colon, in the assay on LOX IMVI melanoma, with K-562 leukemia, in the assay on U251 CNS, with HCT-15 colon and in the assay on HL-60(TB) leukemia was above 261 µM throughout. The TGI in the assay on HT29 colon is above 261 µM.
